Patent publication US9376425B2, “Heterocyclic compounds as MDM2 inhibitors for the treatment of cancer” (AMGEN INC., priority 2011, dated 2016)

target: T1, human MDM2 (GST-hMDM2 aa 1-188), interaction with biotinylated-p53 (aa 1-83) (Homo sapiens, UniProt Q00987); assay: Homogenous Time-Resolved Fluorescence Assay (HTRF1 assay), inhibition of HDM2-p53 interaction; type: binding; details: 2.5 nM GST-hMDM2, 5 nM biotinylated-p53, 200 mM KF
T1 construct: Amino acid residues 1-188 of human MDM2 were expressed; made in house; host or cells: Escherichia coli
T1 sequence (Q00987 1-188): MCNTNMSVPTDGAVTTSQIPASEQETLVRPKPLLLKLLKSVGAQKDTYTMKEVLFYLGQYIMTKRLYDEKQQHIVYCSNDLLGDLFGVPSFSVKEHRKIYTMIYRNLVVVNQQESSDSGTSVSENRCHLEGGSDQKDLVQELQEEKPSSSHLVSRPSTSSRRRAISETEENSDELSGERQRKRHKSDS
Method in brief: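 GST-hMDM2 preincubated 20 min at room temperature with serially diluted compound, then biotinylated p53 (aa 1-83, AviTag-TrxA-6xHis fusion) added for 60 min. SA-XLent/anti-GST cryptate detection equilibrated >4 h; final DMSO 2%. Time-resolved fluorescence read; percent inhibition relative to nutlin-3.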

Row | SMILES | IC50
1 | O=C1[C@@H](Cc2nnn[nH]2)O[C@H](c2cccc(Cl)c2)[C@@H](c2ccc(Cl)cc2)N1CC1CC1.O=C1[C@H](Cc2nnn[nH]2)O[C@H](c2cccc(Cl)c2)[C@@H](c2ccc(Cl)cc2)N1CC1CC1 (mixture of isomers) [Example 50, (2S,5R,6R)-6-(3-Chlorophenyl)-5-(4-chlorophenyl)-4-(cyclopropylmethyl)-2-((tetrazol-5-yl)methyl)morpholin-3-one and (2R,5R,6R)-6-(3-Chlorophenyl)-5-(4-chlorophenyl)-4-(cyclopropylmethyl)-2-((tetrazol-5-yl)methyl)morpholin-3-one] | 700 nM
2 | Cn1c([C@@H]2[C@@H](c3cccc(Cl)c3)O[C@H](CC(=O)O)C(=O)N2CC2CC2)nc2ccccc21.Cn1c([C@H]2[C@H](c3cccc(Cl)c3)O[C@@H](CC(=O)O)C(=O)N2CC2CC2)nc2ccccc21 (mixture of isomers) [Example 6, 2-((2R,5R,6R)-6-(3-Chlorophenyl)-4-(cyclopropylmethyl)-5-(1-methyl-1H-benzo[d]imidazol-2-yl)-3-oxomorpholin-2-yl)acetic acid and 2-((2S,5S,6S)-6-(3-Chlorophenyl)-4-(cyclopropylmethyl)-5-(1-methyl-1H-benzo[d]imidazol-2-yl)-3-oxomorpholin-2-yl)acetic acid] | 46700 nM
3 | O=C(O)C[C@@H]1O[C@H](c2cccc(Cl)c2)[C@@H](c2ccc(Cl)cc2)NC1=O [Example 34, 2-((2S,5R,6R)-6-(3-Chlorophenyl)-5-(4-chlorophenyl)-3-oxomorpholin-2-yl)acetic acid] | 25000 nM
4 | Cn1c([C@@H]2[C@@H](c3cccc(Cl)c3)O[C@@H](CC(=O)O)C(=O)N2CC2CC2)nc2ccccc21 (racemic) [Example 5, 2-((2S,5R,6R)-6-(3-Chlorophenyl)-4-(cyclopropylmethyl)-5-(1-methyl-1H-benzo[d]imidazol-2-yl)-3-oxomorpholin-2-yl)acetic acid and 2-((2R,5S,6S)-6-(3-Chlorophenyl)-4-(cyclopropylmethyl)-5-(1-methyl-1H-benzo[d]imidazol-2-yl)-3-oxomorpholin-2-yl)acetic acid] | 39500 nM
5 | O=C(O)CC1O[C@H](c2cncc(Cl)c2)[C@@H](c2ccc(Cl)cc2)N(CC2CC2)C1=O (single isomer, unassigned) [Example 88] | 2100 nM
6 | CS(=O)(=O)c1cc(Cl)cc([C@H]2O[C@@H](CC(=O)O)C(=O)N(CC3CC3)[C@@H]2c2ccc(Cl)cc2)c1 (single isomer, unassigned) [Example 111] | 2300 nM
7 | O=C(O)CC1O[C@H](c2cccc(Cl)c2)[C@@H](c2ccc(Br)cc2)N(CC2CC2)C1=O (single isomer, unassigned) [Example 68] | 14200 nM
8 | O=C(O)CC1O[C@H](c2cccc(Cl)c2)[C@@H](c2ccc(Cl)cc2Br)N(CC2CC2)C1=O (single isomer, unassigned) [Example 79] | 70200 nM
9 | CC(C)c1ccc([C@@H]2[C@@H](c3cccc(Cl)c3)O[C@H](CC(=O)O)C(=O)N2CC2CC2)cc1 [Example 66, 2-((2R,5R,6R)-6-(3-Chlorophenyl)-4-(cyclopropylmethyl)-5-(4-isopropylphenyl)-3-oxomorpholin-2-yl)acetic acid] | 13500 nM
10 | O=C(O)CC1O[C@H](c2cccc(Cl)c2)[C@@H](c2ccc(C(F)(F)F)nc2)N(CC2CC2)C1=O (single isomer, unassigned) [Example 81] | 15700 nM
11 | C[C@H](C1CCCCC1)N1C(=O)[C@H](CC(=O)O)O[C@H](c2cccc(Cl)c2)[C@H]1c1ccc(Cl)cc1 (single isomer, unassigned) [Example 18, 2-((2S,5R,6R)-6-(3-chlorophenyl)-5-(4-chlorophenyl)-4-((R)-1-cyclohexylethyl)-3-oxomorpholin-2-yl)acetic acid or 2-((2S,5R,6R)-6-(3-Chlorophenyl)-5-(4-chlorophenyl)-4-((S)-1-cyclohexylethyl)-3-oxomorpholin-2-yl)acetic acid] | 100 nM

The remaining lines, values ahead:

Row | IC50 | SMILES
12 | 900 nM | O=C(O)C[C@H]1O[C@H](c2cccc(Cl)c2)[C@@H](c2ccc(Cl)cc2F)N(CC2CC2)C1=O (single isomer, unassigned) [Example 62]
13 | 1100 nM | O=C(O)CC1O[C@H](c2cc(Cl)ccc2F)[C@@H](c2ccc(Cl)cc2)N(CC2CC2)C1=O (single isomer, unassigned) [Example 100]
14 | 600 nM | O=C(O)C[C@@H]1O[C@H](c2cccc(Cl)c2)[C@@H](c2ccc(Cl)cc2)N(CCC(F)(F)F)C1=O [Example 11, 2-((2S,5R,6R)-6-(3-Chlorophenyl)-5-(4-chlorophenyl)-3-oxo-4-(3,3,3-trifluoropropyl)morpholin-2-yl)acetic acid]
15 | 600 nM | C[C@H](c1ccccc1)N1C(=O)[C@H](CC(=O)O)O[C@H](c2cccc(Cl)c2)[C@H]1c1ccc(Cl)cc1 [Example 25, 2-((2S,5R,6R)-6-(3-Chlorophenyl)-5-(4-chlorophenyl)-3-oxo-4-((R)-1-phenylethyl)morpholin-2-yl)acetic acid]
16 | 1800 nM | CC[C@H](C(=O)OC(C)(C)C)N1C(=O)[C@H](CC(=O)O)O[C@H](c2cccc(Cl)c2)[C@H]1c1ccc(Cl)cc1 (single isomer, unassigned) [Example 30]
17 | 300 nM | O=C(O)C[C@H]1O[C@H](c2cccc(Cl)c2)[C@@H](c2ccc(Cl)cc2)N(C2CCCC2)C1=O [Example 15, 2-((2R,5R,6R)-6-(3-chlorophenyl)-5-(4-chlorophenyl)-4-cyclopentyl-3-oxomorpholin-2-yl)acetic acid]
18 | 300 nM | O=C(O)C[C@@H]1O[C@H](c2cccc(Cl)c2)[C@@H](c2ccc(Cl)cc2)N(CC2CCCC2)C1=O [Example 29, 2-((2S,5R,6R)-6-(3-Chlorophenyl)-5-(4-chlorophenyl)-4-(cyclopentylmethyl)-3-oxomorpholin-2-yl)acetic acid]
19 | 500 nM | CCCN1C(=O)[C@@H](CC(=O)O)O[C@H](c2cccc(Cl)c2)[C@H]1c1ccc(Cl)cc1 [Example 48, 2-((2R,5R,6R)-6-(3-Chlorophenyl)-5-(4-chlorophenyl)-3-oxo-4-propylmorpholin-2-yl)acetic acid]
20 | 800 nM | O=C(O)C[C@@H]1O[C@H](c2cccc(Cl)c2)[C@@H](c2ccc(C(F)(F)F)cc2)N(CC2CC2)C1=O [Example 57, 2-((2S,5R,6R)-6-(3-Chlorophenyl)-4-(cyclopropylmethyl)-3-oxo-5-(4-(trifluoromethyl)phenyl)morpholin-2-yl)acetic acid]
21 | 900 nM | CCN1C(=O)[C@@H](CC(=O)O)O[C@H](c2cccc(Cl)c2)[C@H]1c1ccc(Cl)cc1 [Example 44, 2-((2R,5R,6R)-6-(3-Chlorophenyl)-5-(4-chlorophenyl)-4-ethyl-3-oxomorpholin-2-yl)acetic acid]
22 | 500 nM | C[C@@H](C1CCC1)N1C(=O)[C@@H](CC(=O)O)O[C@H](c2cccc(Cl)c2)[C@H]1c1ccc(Cl)cc1 [Example 22, 2-((2R,5R,6R)-6-(3-Chlorophenyl)-5-(4-chlorophenyl)-4-((S)-1-cyclobutylethyl)-3-oxomorpholin-2-yl)acetic acid]
23 | 700 nM | O=C(O)C[C@H]1O[C@H](c2cccc(Cl)c2)[C@@H](c2ccc(Cl)cc2)N(C2CCC2)C1=O [Example 13, 2-((2R,5R,6R)-6-(3-Chlorophenyl)-5-(4-chlorophenyl)-4-cyclobutyl-3-oxomorpholin-2-yl)acetic acid]
24 | 300 nM | O=C(O)CC1O[C@H](c2cc(F)cc(Cl)c2)[C@@H](c2ccc(Cl)cc2)N(CC2CC2)C1=O (single isomer, unassigned) [Example 83]
25 | 300 nM | O=C(O)CC1O[C@H](c2cccc(Cl)c2)[C@@H](c2ccc(Cl)c(F)c2)N(CC2CC2)C1=O (single isomer, unassigned) [Example 77]
26 | 1100 nM | O=C(O)C[C@H]1O[C@H](c2cccc(Cl)c2)[C@@H](c2ccc(OC(F)(F)F)cc2)N(CC2CC2)C1=O [Example 65, 2-((2R,5R,6R)-6-(3-Chlorophenyl)-4-(cyclopropylmethyl)-3-oxo-5-(4-(trifluoromethoxy)phenyl)morpholin-2-yl)acetic acid]
27 | 800 nM | C=CCN1C(=O)[C@H](CC(=O)O)O[C@H](c2cccc(Cl)c2)[C@H]1c1ccc(Cl)cc1 [Example 47, 2-((2S,5R,6R)-4-Allyl-6-(3-chlorophenyl)-5-(4-chlorophenyl)-3-oxomorpholin-2-yl)acetic acid]
28 | 300 nM | O=C(O)C[C@@H]1O[C@H](c2cccc(Cl)c2)[C@@H](c2ccc(Cl)cc2)N(C2CCCC2)C1=O [Example 14, 2-((2S,5R,6R)-6-(3-Chlorophenyl)-5-(4-chlorophenyl)-4-cyclopentyl-3-oxomorpholin-2-yl)acetic acid]
